From patent publication US20250073146A1, “MIXED SURFACTANT FOR PREPARING TRANSPARENT MICROEMULSION AND FINE NANOEMULSION, AND COSMETIC COMPOSITION PREPARED USING THE SAME” (BIOBEAUTECH Co., Ltd., priority 2023, published 2025)

Experiment: HLB of surfactant
Format: physicochemical

| Substance | average HLB |
| --- | --- |
| polyglyceryl-10 oleate | 12.5 |
| sucrose distearate | 6.3 |
